Assay results published in ChEMBL document CHEMBL1821549, “Phylogeny-guided isolation of ethyl tumonoate A from the marine cyanobacterium cf. Oscillatoria margaritifera” (J Nat Prod, 2011).
The source made the active and inactive calls. The calls are words filed in the database; no cut-off is given here.

Key:
Mus musculus = species on record: Mus musculus; test: Inhibition of calcium (Ca2+) oscillations in Swiss-Webster mouse neocortical neurons at 10 uM by Fluo-3 dye based fluorimetric assay; type: functional
RAW264.7 [1] = test: Antiinflammatory activity in mouse RAW264.7 cells assessed as inhibition of LPS-induced nitric oxide production incubated for 24 hrs by Griess method; type: functional, cell-based; conditions: RAW264.7, 24 h
RAW264.7 [2] = test: Cytotoxicity against mouse RAW264.7 cells after 48 hrs by MTT assay; type: cell-based; conditions: raw264.7, 48 h
NCI-H460 = test: Cytotoxicity against human H460 cells at =>10 ug/mL; type: cell-based

IC50 (RAW264.7 [1]) [µM] | SMILES | inhibition (Mus musculus) | Activity (RAW264.7 [2]) | Activity (NCI-H460)
 | CCCCCCC/C=C(\C)[C@@H](O)[C@@H](C)C(=O)N1CCC[C@H]1C(=O)O | Active |  | 
 | CCCCCCCCC(C)[C@H](OC(C)=O)[C@H](C)C(=O)N1CCC[C@H]1C(=O)O (some centres not stated) | Active |  | 
 | CCCCCCCC[C@H](C)C(=O)N1CCC[C@H]1C(=O)O[C@@H](C(=O)O[C@@H](C)C(=O)O)[C@@H](C)CC | inactive |  | 
9.8 | CCCCCCC/C=C(\C)[C@@H](O)[C@@H](C)C(=O)N1CCC[C@H]1C(=O)OCC [ETHYL TUMONOATE A] | Active | Non-toxic | Non-toxic
